In patent publication US7300946B2, “N-(substituted arylmethyl)-4-(disubstituted methyl) piperidines and pyridines” (Bayer CropScience AG, priority 2002, dated 2007):

Tested on: tobacco budworm (Heliothis virescens [Fabricius])
Experiment: surface-treated diet test against the tobacco budworm
Type: in vivo
Settings: tobacco budworm second instar larvae, surface-treated diet, 0.25 millimoles of candidate insecticide on the surface of the diet, five-day exposure; for Percent Mortality: compared to total number of insects infested; for Percent Growth Inhibition: inhibition of insect weight relative to untreated controls
Procedure, shortened: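 Wheat germ artificial diet surface-treated with 40 µL of 50 mM DMSO stock diluted 1:7 in 1:1 water/acetone (0.25 millimolar on diet), or sub-multiples for rate tests. One second-instar larva per well, 25° C, 60% RH, 5 days; percent weight inhibition vs DMSO controls and percent mortality.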

Compound	Percent Mortality	Percent Growth Inhibition
O=C(Nc1ccc(Cl)cc1)OC(c1ccc(C(F)(F)F)cc1)C1CCN(Cc2ccc(-c3ccccc3)cc2)CC1 (centres unmarked) [Compound 543]	100%	100%
O=C(Nc1cc(F)cc(F)c1)OC(c1ccc(C(F)(F)F)cc1)C1CCN(Cc2ccc(-c3ccccc3)cc2)CC1 (centres unmarked) [Compound 544]	100%	100%
O=C(Nc1ccc(Cl)cc1)OC(c1ccc(C(F)(F)F)cc1)C1CCN(Cc2ccc(Oc3ccccc3)cc2)CC1 (centres unmarked) [Compound 545]	100%	100%
O=C(Nc1cc(F)cc(F)c1)OC(c1ccc(C(F)(F)F)cc1)C1CCN(Cc2ccc(Oc3ccccc3)cc2)CC1 (centres unmarked) [Compound 546]	100%	100%
O=C(Nc1cc(F)cc(F)c1)OC(c1ccc(C(F)(F)F)cc1)C1CCN(Cc2ccc(Oc3ccccc3F)cc2)CC1 (centres unmarked) [Compound 547]	100%	100%
O=C(Nc1cc(F)cc(F)c1)OC(c1ccc(C(F)(F)F)cc1)C1CCN(Cc2ccc(Oc3c(F)cccc3F)cc2)CC1 (centres unmarked) [Compound 548]	100%	100%
O=C(Nc1cc(F)cc(F)c1)OC(c1ccc(C(F)(F)F)cc1)C1CCN(Cc2ccc(OCc3ccccc3)cc2)CC1 (centres unmarked) [Compound 549]	0%	98%
O=C(Nc1cc(F)cc(F)c1)OC(c1ccc(C(F)(F)F)cc1)C1CCN(Cc2ccc(NC(=O)c3ccccc3Cl)cc2)CC1 (centres unmarked) [Compound 550]	100%	100%
O=C(Nc1cc(F)cc(F)c1)OC(c1ccc(C(F)(F)F)cc1)C1CCN(Cc2ccc(NC(=O)c3c(Cl)cccc3Cl)cc2)CC1 (centres unmarked) [Compound 551]	100%	100%
O=C(Nc1cc(F)cc(F)c1)OC(c1ccc(C(F)(F)F)cc1)C1CCN(Cc2ccc(NC(=O)c3c(F)cccc3F)cc2)CC1 (centres unmarked) [Compound 552]	100%	100%
COc1ccccc1C(=O)Nc1ccc(CN2CCC(C(OC(=O)Nc3cc(F)cc(F)c3)c3ccc(C(F)(F)F)cc3)CC2)cc1 (centres unmarked) [Compound 553]	100%	100%
COc1ccc(C(=O)Nc2ccc(CN3CCC(C(OC(=O)Nc4cc(F)cc(F)c4)c4ccc(C(F)(F)F)cc4)CC3)cc2)cc1 (centres unmarked) [Compound 554]	0%	99%
O=C(Nc1ccc(F)cc1)OC(c1ccc(C(F)(F)F)cc1)C1CCN(Cc2ccc(-n3cccn3)cc2)CC1 (centres unmarked) [Compound 555]	33%	100%
O=C(Nc1cc(F)cc(F)c1)OC(c1ccc(C(F)(F)F)cc1)C1CCN(Cc2ccc(-n3cccn3)cc2)CC1 (centres unmarked) [Compound 556]	100%	100%
O=C(Nc1ccc(F)cc1)OC(c1ccc(C(F)(F)F)cc1)C1CCN(Cc2ccc(-n3cncn3)cc2)CC1 (centres unmarked) [Compound 557]	0%	86%
O=C(Nc1cc(F)cc(F)c1)OC(c1ccc(C(F)(F)F)cc1)C1CCN(Cc2ccc(-n3cncn3)cc2)CC1 (centres unmarked) [Compound 558]	17%	99%
O=C(Nc1ccc(F)cc1)OC(c1ccc(C(F)(F)F)cc1)C1CCN(Cc2ccc(-c3csnn3)cc2)CC1 (centres unmarked) [Compound 559]	17%	97%
O=C(Nc1cc(F)cc(F)c1)OC(c1ccc(C(F)(F)F)cc1)C1CCN(Cc2ccc(-c3csnn3)cc2)CC1 (centres unmarked) [Compound 560]	33%	96%
O=C(Nc1ccc(Cl)cc1)OC(c1ccc(C(F)(F)F)cc1)C1CCN(Cc2ccc(Oc3nsnc3Cl)cc2)CC1 (centres unmarked) [Compound 561]	50%	100%
O=C(Nc1cc(F)cc(F)c1)OC(c1ccc(C(F)(F)F)cc1)C1CCN(Cc2ccc(NC3=NCCO3)cc2)CC1 (centres unmarked) [Compound 563]	0%	96%
CCn1nnc(-c2ccc(CN3CCC(C(OC(=O)Nc4ccc(Cl)cc4)c4ccccc4)CC3)cc2)n1 (centres unmarked) [Compound 564]	100%	100%
CCn1nnc(-c2ccc(CN3CCC(C(OC(=O)Nc4ccc(C(F)(F)F)cc4)c4ccccc4)CC3)cc2)n1 (centres unmarked) [Compound 565]	100%	100%
CCn1nnc(-c2ccc(CN3CCC(C(OC(=O)Nc4cc(F)cc(C(F)(F)F)c4)c4ccccc4)CC3)cc2)n1 (centres unmarked) [Compound 566]	100%	100%
CCn1nnc(-c2ccc(CN3CCC(C(OC(=O)Nc4ccc(Cl)cc4)c4ccccc4Cl)CC3)cc2)n1 (centres unmarked) [Compound 567]	100%	100%
CCn1nnc(-c2ccc(CN3CCC(C(OC(=O)Nc4ccc(Cl)c(Cl)c4)c4ccccc4Cl)CC3)cc2)n1 (centres unmarked) [Compound 568]	100%	100%

Compound	Percent Mortality	Percent Growth Inhibition
CCn1nnc(-c2ccc(CN3CCC(C(OC(=O)Nc4ccc(F)c(F)c4)c4ccccc4Cl)CC3)cc2)n1 (centres unmarked) [Compound 569]	100%	100%
CCn1nnc(-c2ccc(CN3CCC(C(OC(=O)Nc4cc(F)cc(F)c4)c4ccccc4Cl)CC3)cc2)n1 (centres unmarked) [Compound 570]	100%	100%
CCn1nnc(-c2ccc(CN3CCC(C(OC(=O)Nc4ccc(C(F)(F)F)cc4)c4ccccc4Cl)CC3)cc2)n1 (centres unmarked) [Compound 571]	100%	100%
CCn1nnc(-c2ccc(CN3CCC(C(OC(=O)Nc4ccc(Cl)cc4)c4ccc(Cl)c(Cl)c4)CC3)cc2)n1 (centres unmarked) [Compound 572]	100%	100%
CCn1nnc(-c2ccc(CN3CCC(C(OC(=O)Nc4ccc(Cl)c(Cl)c4)c4ccc(Cl)c(Cl)c4)CC3)cc2)n1 (centres unmarked) [Compound 573]	100%	100%
CCn1nnc(-c2ccc(CN3CCC(C(OC(=O)Nc4ccc(F)c(F)c4)c4ccc(Cl)c(Cl)c4)CC3)cc2)n1 (centres unmarked) [Compound 574]	100%	100%
CCn1nnc(-c2ccc(CN3CCC(C(OC(=O)Nc4cc(F)cc(F)c4)c4ccc(Cl)c(Cl)c4)CC3)cc2)n1 (centres unmarked) [Compound 575]	100%	100%
CCn1nnc(-c2ccc(CN3CCC(C(OC(=O)Nc4ccc(C(F)(F)F)cc4)c4ccc(Cl)c(Cl)c4)CC3)cc2)n1 (centres unmarked) [Compound 576]	100%	100%
CCn1nnc(-c2ccc(CN3CCC(C(OC(=O)Nc4ccc(Cl)cc4)c4cc(Cl)cc(Cl)c4)CC3)cc2)n1 (centres unmarked) [Compound 577]	100%	100%
CCn1nnc(-c2ccc(CN3CCC(C(OC(=O)Nc4ccc(Cl)c(Cl)c4)c4cc(Cl)cc(Cl)c4)CC3)cc2)n1 (centres unmarked) [Compound 578]	100%	100%
CCn1nnc(-c2ccc(CN3CCC(C(OC(=O)Nc4ccc(F)c(F)c4)c4cc(Cl)cc(Cl)c4)CC3)cc2)n1 (centres unmarked) [Compound 579]	100%	100%
CCn1nnc(-c2ccc(CN3CCC(C(OC(=O)Nc4cc(F)cc(F)c4)c4cc(Cl)cc(Cl)c4)CC3)cc2)n1 (centres unmarked) [Compound 580]	100%	100%
CCn1nnc(-c2ccc(CN3CCC(C(OC(=O)Nc4ccc(C(F)(F)F)cc4)c4cc(Cl)cc(Cl)c4)CC3)cc2)n1 (centres unmarked) [Compound 581]	100%	100%
CCn1nnc(-c2ccc(CN3CCC(C(OC(=O)Nc4ccc(Cl)cc4)c4cccc(F)c4)CC3)cc2)n1 (centres unmarked) [Compound 582]	100%	100%
CCn1nnc(-c2ccc(CN3CCC(C(OC(=O)Nc4ccc(Cl)c(Cl)c4)c4cccc(F)c4)CC3)cc2)n1 (centres unmarked) [Compound 583]	100%	100%
CCn1nnc(-c2ccc(CN3CCC(C(OC(=O)Nc4ccc(F)c(F)c4)c4cccc(F)c4)CC3)cc2)n1 (centres unmarked) [Compound 584]	100%	100%
CCn1nnc(-c2ccc(CN3CCC(C(OC(=O)Nc4cc(F)cc(F)c4)c4cccc(F)c4)CC3)cc2)n1 (centres unmarked) [Compound 585]	100%	100%
CCn1nnc(-c2ccc(CN3CCC(C(OC(=O)Nc4cccc(C(F)(F)F)c4)c4cccc(F)c4)CC3)cc2)n1 (centres unmarked) [Compound 586]	100%	100%
CCn1nnc(-c2ccc(CN3CCC(C(OC(=O)Nc4ccc(C(F)(F)F)cc4)c4cccc(F)c4)CC3)cc2)n1 (centres unmarked) [Compound 587]	100%	100%
CCn1nnc(-c2ccc(CN3CCC(C(OC(=O)Nc4ccc(Cl)cc4)c4ccc(F)c(F)c4)CC3)cc2)n1 (centres unmarked) [Compound 588]	100%	100%
CCn1nnc(-c2ccc(CN3CCC(C(OC(=O)Nc4cc(F)cc(F)c4)c4ccc(F)c(F)c4)CC3)cc2)n1 (centres unmarked) [Compound 589]	100%	100%
CCn1nnc(-c2ccc(CN3CCC(C(OC(=O)Nc4ccc(Cl)cc4)c4cc(F)cc(F)c4)CC3)cc2)n1 (centres unmarked) [Compound 590]	100%	100%
CCn1nnc(-c2ccc(CN3CCC(C(OC(=O)Nc4ccc(Cl)c(Cl)c4)c4cc(F)cc(F)c4)CC3)cc2)n1 (centres unmarked) [Compound 591]	100%	100%
CCn1nnc(-c2ccc(CN3CCC(C(OC(=O)Nc4cc(F)cc(F)c4)c4cc(F)cc(F)c4)CC3)cc2)n1 (centres unmarked) [Compound 593]	100%	100%
